Consider 20 compounds from patent US7022699B2, “Cyclohexenyl phenyl diazepines vasopressin and oxytocin receptor modulators” (Wyeth, priority 2001, dated 2006).

The target in the first data set is T1, human oxytocin receptor (Homo sapiens, UniProt P30559).
T1 construct: host or cells: CHO cells, stably transfected (pcDNA3.1 vector); membranes
T1 sequence (P30559 1-389): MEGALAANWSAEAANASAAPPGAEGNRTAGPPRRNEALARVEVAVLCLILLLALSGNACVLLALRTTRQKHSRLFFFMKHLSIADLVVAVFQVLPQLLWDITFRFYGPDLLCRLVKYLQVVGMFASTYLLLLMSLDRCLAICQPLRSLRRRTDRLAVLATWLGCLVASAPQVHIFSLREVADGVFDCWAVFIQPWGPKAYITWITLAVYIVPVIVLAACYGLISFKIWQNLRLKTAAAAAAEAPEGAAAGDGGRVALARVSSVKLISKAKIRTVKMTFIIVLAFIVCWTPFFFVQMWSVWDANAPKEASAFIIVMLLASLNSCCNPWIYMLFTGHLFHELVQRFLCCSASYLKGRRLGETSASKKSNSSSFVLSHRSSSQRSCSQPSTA
The data set can be described thus: Oxytocin binding in CHO cell membranes expressing human oxytocin receptors ([3H]oxytocin). The following applies: 100 nM, values without parentheses. From the text:
Oxytocin Binding in Chinese Hamster Ovary Cell Membranes Expressing Human Oxytocin Receptors
Chinese Hamster Ovary (CHO) cells stably transfected with the human oxytocin (cf. Tanizawa et al., U.S. Pat. No. 5,466,584 (1995) to Rohto Pharmaceutical Co. Ltd., Osaka, Japan) were obtained from M. Thibonnier, Case Western Reserve University School of Medicine, Cleveland, Ohio. A. Passaging and Amplification of Cells: CHO cells transfected with the human oxytocin receptors obtained from M. Thibonnier (pcDNA3.1 vector) are allowed to grow to confluency (approx. >90%) in T-150 flasks under sterile conditions, in a cell culture medium of F-12 Nutrient Mixture (HAM) with L-glutamine (Gibco Cat. #11765-054) containing 15 mM HEPES (Gibco Cat. #15630-080), 1% antibiotic/antimycotic (add 5 mL 100×, Gibco Cat. #15240-062 per 500 mL F-12), 400 μg/mL of Geneticin (add 4 mL of 50 mg/mL per 500 mL F-12) and 10% Fetal Bovine Serum (Qualified, heat inactivated, Gibco Cat. #16140-063). The medium is removed by aspiration and the cells are washed with 10 mL of Hank's Balanced Salt solution (Gibco Cat. #14175-095). The salt solution is removed by aspiration and the cells trypsinized with 5 mL of trypsin-EDTA (0.05% trypsin, 0.53 mM EDTA-4Na, Gibco Cat. #25300-070) for 1 min. The trypsin is removed by aspiration and the cells dislodged by tapping. Cell Culture medium (e.g. 30 mL for 1:30 split) is immediately added and mixed well to inactivate trypsin. 1 mL of detached cells is added to new culture flasks containing fresh Cell Culture medium (e.g. into 25 mL per T-150 flask), and mixed gently. The cells are incubated at 37° C. in 5% CO2. The medium is changed at 3 to 4 days interval (or as appropriate). The cells grow to confluency (approx. >75%–95%) within 7–8 days. All steps are done under sterile conditions. B. Membrane Preparation: The cells are washed twice gently with Hank's Balanced Salt solution (e.g., use 10 mL per T-150 flask). The excess is removed and the cells bathed for 15–30 min. in an enzyme-free Cell Dissociation Buffer (e.g., use 8 mL Hank's Based, Gibco Cat. #13150-016 per T-150 flask) until cells are loosened. The contents are transferred to centrifuge tubes (50 mL size) kept in ice bath. All subsequent steps are done at 4° C. The tubes are centrifuged at 300×g for 15 min (1380 rpm on SORVAL, Model RT6000D, using rotor for 50 mL tubes). The supernatant is discarded and the cells suspended in homogenizing buffer (10 mM Tris-HCl containing 0.25 M sucrose and 1 mM EDTA, pH 7.4) ensuring that the volume of the buffer is about ten times the volume of the cell pellet. The cells are pooled into a centrifuge tube (50 mL) and homogenized with Polytron at setting 6 for 10 sec. The homogenate is transferred into a Potter-Elvjehm homogenizer and homogenized with 3 strokes. The homogenate is centrifuged at 1500×g for 10 min at 4° C. (3100 rpm using SORVAL, model RT6000D, using rotor for 50 mL tubes). The pellet. is discarded. The supernatant is centrifuged at 100,000×g for 60 min. at 4° C. (Beckman L8-80M ultracentrifuge; spin at 37,500 rpm with rotor type 70 Ti for 50 mL tubes; 38,000 rpm with type 80Ti for 15 mL tubes; or 35,800 rpm with rotor type 45Ti). The supernantant is discarded and the pellet suspended in 3 to 4 mL of Tris buffer (50 mM TRIS-HCl, pH 7.4). The protein content is estimated by the Bradford or Lowry method. The volume of the membrane suspension is adjusted with the membrane buffer (50 mM Tris-HCl containing 0.1% BSA and 0.1 mM PMSF) to give 3.0 mg/mL (or as appropriate) of protein. The membranes are aliquoted and stored at −70° C. C. Radioligand Binding Assay: In wells of a 96-well format microliter plate, is added 90, 110 or 130 μL (to make up a final volume of 200 μL) of assay buffer containing 50 mM of Tris-HCl (pH 7.4), […], 1 mg % aprotinin, 1 mg % leupeptin, 2 mg % 1,10-phenanthroline, 10 mg % trypsin inhibitor, and 0.1 mM PMSF. The inhibitors are added on the day of the experiment. […]
As to `CC(C)(C)C1CCCC=C1c1ccc(C(=O)N2Cc3cccn3Cc3ccccc32)cc1` (stereo not drawn) [Example 20, (10,11-5H-Dihydro-pyrrolo[2,1-c][1,4]benzodiazepin-10-yl)-[4-(6-tert-butyl-cyclohex-1-en-1-yl)-phenyl]-methanone], the “OT % inhibition @ 100 nM” value came out at 27%.
As to `O=C(c1ccc(C2=CCC3CCC2C3)cc1)N1Cc2cccn2Cc2ccccc21` (stereo not drawn) [Example 21], the “OT % inhibition @ 100 nM” value came out at 38%.

The data set is the same for the next values; noted with them: 100 nM, values without parentheses, read-out: OT % inhibition @ 100 nM.
`CC1=C(c2ccc(C(=O)N3Cc4cccn4Cc4ccccc43)cc2C)CCCC1O` (racemic) [Example 5, (10,11-Dihydro-5H-pyrrolo[2,1-c][1,4]benzodiazepin-10-yl)-[4-(3-hydroxy-2-methyl-cyclohex-1-en-1-yl)-3-methyl-phenyl]-methanone]: the inhibition at 0.1 µM was found to be 13%.
Still for that read-out and setting: in the case of `CC1=C(c2ccc(C(=O)N3Cc4cccn4Cc4ccccc43)cc2C)CCC[C@H]1O` (single isomer, unassigned) [Example 41] it was 90%; in that of `CC1=C(c2ccc(C(=O)N3Cc4cccn4Cc4ccccc43)cc2C)CCC[C@@H]1O` (single isomer, unassigned) [Example 43], 96%.
Regarding `Cc1cc(C(=O)N2Cc3cccn3Cc3ccccc32)ccc1C1=CCCCC1` [Example 2, (10,11-Dihydro-5H-pyrrolo[2,1-c][1,4]benzodiazepin-10-yl)-(4-cyclohex-1-en-1-yl-3-methyl-phenyl)-methanone], the inhibition at 0.1 µM was 96%.
Still for that read-out and setting: the result for `CC1=C(c2ccc(C(=O)N3Cc4cccn4Cc4ccccc43)cc2C)CCCC1=O` [Example 4, 3-[2-Methyl-4-(5H-pyrrolo[2,1-c][1,4]benzodiazepin-10(11H)-yl-carbonyl)phenyl]-2-methyl-cyclohex-2-en-1-one] reads 46%; that for `CC1=C(c2ccc(C(=O)N3Cc4cccn4Cc4ccccc43)cc2C)CCC[C@H]1O` [Example 6, (10,11-Dihydro-5H-pyrrolo[2,1-c][1,4]benzodiazepin-10-yl)-[4-((3R)-3-hydroxy-2-methyl-cyclohex-1-en-1-yl)-3-methyl-phenyl]-methanone], 95%.
Consider `COc1cc(C2=C(C)C(=O)CCC2)c(Cl)cc1C(=O)N1Cc2cccn2Cc2ccccc21` [Example 9, 3-[2-Chloro-5-methoxy-4-(5H-pyrrolo[2,1-c][1,4]benzodiazepin-10(11H)-yl-carbonyl)phenyl]-2-methyl-cyclohex-2-en-1-one], for which the inhibition at 0.1 µM worked out at 90%.
As to `O=C(c1ccc(C2=CCCCC2)cc1Cl)N1Cc2cccn2Cc2ccccc21` [Example 10, (10,11-dihydro-5H-pyrrolo[2,1-c][1,4]benzodiazepin-10-yl)-[2-chloro-4-(cyclohex-1-en1-yl)-phenyl]-methanone], the inhibition at 0.1 µM came out at 95%.
On the same count and under the same terms, the result for `CC1(C)CCCC=C1c1ccc(C(=O)N2Cc3cccn3Cc3ccccc32)c(Cl)c1` [Example 12, (10,11-Dihydro-5H-pyrrolo[2,1-c][1,4]benzodiazepin-10-yl)-[2-chloro-4-(6,6-dimethyl-cyclohex-1-en-1-yl)-phenyl]-methanone] reads 74%; that for `CC1=C(c2ccc(C(=O)N3Cc4cccn4Cc4ccccc43)c(Cl)c2)CCCC1=O` [Example 13, (10,11-Dihydro-5H-pyrrolo[2,1-c][1,4]benzodiazepin-10-yl)-[2-chloro-4-(2-methyl-3-oxo-cyclohex-1-en-1-yl)-phenyl]-methanone], 98%; that for `CC1=C(c2ccc(C(=O)N3Cc4cccn4Cc4ccccc43)c(Cl)c2)CCCC1O` (stereo not drawn) [Example 14, (10,11-Dihydro-5H-pyrrolo[2,1-c][1,4]benzodiazepin-10-yl)-[2-chloro-4-(3-hydroxy-2-methyl-cyclohex-1-en-1-yl)-phenyl]-methanone], 27%.
On the same count and under the same terms, in the case of `O=C(c1ccc(C2=CC(O)CCC2)cc1)N1Cc2cccn2Cc2ccccc21` (stereo not drawn) [Example 25, (10,11-Dihydro-5H-pyrrolo[2,1-c][1,4]benzodiazepin-10-yl)-[4-(3-hydroxy-cyclohex-1-en-1-yl)-phenyl]-methanone] it was 39%; in that of `CC1=C(c2ccc(C(=O)N3Cc4cccn4Cc4ccccc43)cc2)CCCC1O` (stereo not drawn) [Example 27, (10,11-Dihydro-5H-pyrrolo[2,1-c][1,4]benzodiazepin-10-yl)-[4-(3-hydroxy-2-methyl-cyclohex-1-en-1-yl)-phenyl]-methanone], 96%; in that of `Cc1cc(C(=O)N2Cc3cccn3Cc3ccccc32)ccc1C1=CC(O)CCC1` (stereo not drawn) [Example 40, (10,11-Dihydro-5H-pyrrolo[2,1-c][1,4]benzodiazepin-10-yl)-[4-(3-hydroxy-cyclohex-1-en-1-yl)-3-methyl-phenyl]-methanone], 63%.
Turning to `CC1=C(c2ccc(C(=O)N3Cc4cccn4Cc4ccccc43)cc2C)CCCC1N` (stereo not drawn) [Example 45, [4-(3-Amino-2-methyl-cyclohex-1-en-1-yl)-3-methyl-phenyl]-(10,11-dihydro-5H-pyrrolo[2,1-c][1,4]benzodiazepin-10-yl)-methanone], the inhibition at 0.1 µM stood at 67%.

The same data set, now with this note: values in parentheses, read-out: OT (IC50).
In the case of `COc1cc(C2=CCCCC2)c(Cl)cc1C(=O)N1Cc2cccn2Cc2ccccc21` [Example 1, 10-(5-Chloro-4-cyclohex-1-en-1-yl-2-methoxybenzoyl)-10,11-dihydro-5H-pyrrolo[2,1-c][1,4]benzodiazepine], the IC50 turned out to be 7.74 nM.
In the case of `Cc1cc(C(=O)N2Cc3cccn3Cc3ccccc32)ccc1C1=CCCc2ccccc21` [Example 3, (10,11-Dihydro-5H-pyrrolo[2,1-c][1,4]benzodiazepin-10-yl)-[4-(3,4-dihydro-naphthalen-1-yl)-3-methyl-phenyl]-methanone], the IC50 was found to be 24 nM.
Same read-out and setting: the result for `CC1=C(c2ccc(C(=O)N3Cc4cccn4Cc4ccccc43)cc2)CCCC1` [Example 7, (10,11-Dihydro-5H-pyrrolo[2,1-c][1,4]benzodiazepin-10-yl)-[4-(2-methyl-cyclohex-1-en-1-yl)-phenyl]-methanone] reads 9.06 nM.

Tested on in another data set: not given
Experiment: not given
Details: not given
`COc1cc(C2=CCCCC2)c(Cl)cc1C(=O)N1Cc2cccn2Cc2ccccc21` [Example 1, 10-(5-Chloro-4-cyclohex-1-en-1-yl-2-methoxybenzoyl)-10,11-dihydro-5H-pyrrolo[2,1-c][1,4]benzodiazepine] returned a melting point of 92 to 98 °C.
In turn, `Cc1cc(C(=O)N2Cc3cccn3Cc3ccccc32)ccc1C1=CCCCC1` [Example 2, (10,11-Dihydro-5H-pyrrolo[2,1-c][1,4]benzodiazepin-10-yl)-(4-cyclohex-1-en-1-yl-3-methyl-phenyl)-methanone] registered a melting point of 182 to 183 °C.
Same read-out and setting: in the case of `Cc1cc(C(=O)N2Cc3cccn3Cc3ccccc32)ccc1C1=CCCc2ccccc21` [Example 3, (10,11-Dihydro-5H-pyrrolo[2,1-c][1,4]benzodiazepin-10-yl)-[4-(3,4-dihydro-naphthalen-1-yl)-3-methyl-phenyl]-methanone] it was 108 °C; in that of `CC1=C(c2ccc(C(=O)N3Cc4cccn4Cc4ccccc43)cc2)CCCC1` [Example 7, (10,11-Dihydro-5H-pyrrolo[2,1-c][1,4]benzodiazepin-10-yl)-[4-(2-methyl-cyclohex-1-en-1-yl)-phenyl]-methanone], 119 to 120 °C.
